Measured values from patent publication US20230027066A1 (Urovant Sciences GmbH, priority 2019, published 2023).
Read-outs that look alike come from different tables or passages of the source.

What was measured:
CYP2D6 = CYP2D6 (Homo sapiens, UniProt P10635); experiment: drug interaction study of vibegron and metoprolol succinate (moderately sensitive CYP2D6 substrate); type: in vivo; set-up: from tissue; host or cells: in vivo, healthy adult human subjects (endogenous enzyme)
[1] = QT Study/Label April 2018, cited from earlier work
[2] = human, plasma, metoprolol 100 mg alone
[3] = metoprolol 100 mg, vibegron 75 mg
[4] = 50 mg repeat-dose, healthy subjects

Sequence of CYP2D6 (P10635 whole entry): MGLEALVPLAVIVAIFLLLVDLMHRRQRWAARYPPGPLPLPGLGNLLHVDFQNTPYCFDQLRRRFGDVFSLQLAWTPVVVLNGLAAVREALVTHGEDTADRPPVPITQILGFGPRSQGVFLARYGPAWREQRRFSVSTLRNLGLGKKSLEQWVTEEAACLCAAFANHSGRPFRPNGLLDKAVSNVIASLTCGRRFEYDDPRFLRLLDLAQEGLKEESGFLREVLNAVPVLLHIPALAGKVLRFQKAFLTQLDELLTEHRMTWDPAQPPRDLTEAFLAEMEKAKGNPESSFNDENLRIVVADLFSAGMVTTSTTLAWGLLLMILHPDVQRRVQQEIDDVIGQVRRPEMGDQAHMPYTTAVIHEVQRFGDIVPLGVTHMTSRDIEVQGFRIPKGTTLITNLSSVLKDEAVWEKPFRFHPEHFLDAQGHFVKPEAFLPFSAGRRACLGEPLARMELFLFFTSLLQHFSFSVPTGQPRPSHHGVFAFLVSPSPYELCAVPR

Row | SMILES | AUC(0-inf) (CYP2D6; [2]) [µg·h/mL] | Cmax (CYP2D6; [2]) [µg/mL] | half-life (CYP2D6; human, plasma, metoprolol 100 mg alone, read-out: t1/2, GM (% CV) (converted)) [h] | AUC0-∞, ratio of GLS mean metoprolol + vibegron/metoprolol alone (CYP2D6; [3]) | Cmax, ratio of GLS mean metoprolol + vibegron/metoprolol alone (CYP2D6; [3]) | SBP change 24-hour average, placebo adjusted [1, 4] | SBP change Maximum mean, placebo adjusted [1, 4] | SBP change 24-hour average, placebo adjusted ([1]; 100 mg repeat-dose, healthy subjects) | SBP change 24-hour average, placebo adjusted ([1]; 200 mg repeat-dose, healthy subjects) | HR change Maximum mean, placebo adjusted ([1]; first of doses 50, 100, 200 mg repeat-dose (doses from the Doses line)) [bpm] | HR change Maximum mean, placebo adjusted ([1]; second of doses 50, 100, 200 mg repeat-dose (doses from the Doses line)) [bpm] | HR change Maximum mean, placebo adjusted ([1]; third of doses 50, 100, 200 mg repeat-dose (doses from the Doses line)) [bpm]
1 | COCCc1ccc(OCC(O)CNC(C)C)cc1 (stereo not drawn) [Metoprolol, metoprolol succinate] | 0.384 | 0.0219 | 9.5 | 1.40 | 1.49 |  |  |  |  |  |  | 
2 | Nc1nc(CC(=O)Nc2ccc(CCNC[C@H](O)c3ccccc3)cc2)cs1 [Mirabegron, mirabegron] |  |  |  |  |  | +3.0 mmHg | Maximum mean +4.0 mmHg | +5.5 mmHg | +9.7 mmHg | 6.7 | 11 | 17
